Where a name gives a salt, the structure may show the parent alone.

In the assay the target is T1, recombinant IRAK-4 kinase (Homo sapiens, UniProt Q9NWZ3).
T1 construct: purchased Millipore, USA
T1 sequence (Q9NWZ3 1-460): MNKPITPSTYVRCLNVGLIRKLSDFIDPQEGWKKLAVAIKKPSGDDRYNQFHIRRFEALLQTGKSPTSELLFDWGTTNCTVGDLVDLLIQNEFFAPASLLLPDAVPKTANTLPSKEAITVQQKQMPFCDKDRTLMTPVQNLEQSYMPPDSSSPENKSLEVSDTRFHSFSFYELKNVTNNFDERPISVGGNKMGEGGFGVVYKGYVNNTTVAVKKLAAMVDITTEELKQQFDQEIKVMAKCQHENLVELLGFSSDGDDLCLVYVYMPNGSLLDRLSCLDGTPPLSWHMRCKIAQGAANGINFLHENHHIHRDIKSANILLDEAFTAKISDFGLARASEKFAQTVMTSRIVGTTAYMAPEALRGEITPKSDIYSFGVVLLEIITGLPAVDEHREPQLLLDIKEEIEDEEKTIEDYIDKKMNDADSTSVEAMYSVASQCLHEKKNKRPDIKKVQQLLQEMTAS
Nature of the assay: IRAK-4 Biochemical Assay (TR-FRET). The settings on record: 30 min pre-incubation, 100 nM Biotin Histone H3, 20 μM ATP, read-out: IC50 values for IRAK4 activity. As to the method:
Compounds were tested for their potential to inhibit IRAK-4 enzyme in a TR-FRET assay using recombinant IRAK-4 kinase from Millipore, USA. The assay buffer was 50 mM Tris-HCl pH 7.5, 20 mM MgCl2, 1 mM EGTA, 2 mM DTT, 3 mM MnCl2 and 0.01% Tween 20.5 ng of IRAK-4 kinase was used for the assay. After pre-incubation of enzyme with test compound for 30 minutes at room temperature, a substrate mixture containing 100 nM Biotin Histone H3 (Millipore, USA) and 20 μM ATP (Sigma, USA) was added and the reaction was incubated for 30 min. Post incubation, the reaction was stopped by the addition of stop mix containing 40 mM EDTA, 1 nM of Europium-Anti-Phospho-Histone H3 (Ser10) antibody (Perkin Elmer, USA) and 20 nM SureLight Allophycocyanin-Streptavidin (Perkin Elmer, USA). The fluorescence emission at 615 nm and 665 nm were measured at an excitation of 340 nm and the percent inhibition was estimated from the ratio of the fluorescence intensities [(F665/F615)×10000]. The compounds were initially screened at 1 μM and 10 μM concentrations and potent compounds (>50% inhibition at 1 μM) were taken for dose response studies. The IC50 values were estimated by fitting the dose-response data to sigmoidal dose response (variable slope), curve fitting program using Graphpad Prism software Version 6.01.

What is called IC50 is the concentration that inhibits the measured activity by half. Regarding `Cn1cc2cc(NC(=O)c3cccc(N4CC[C@@H](N)C4)n3)c(N3CCCCC3)cc2n1` [Example 42, (R)-6-(3-aminopyrrolidin-1-yl)-N-(2-methyl-6-(piperidin-1-yl)-2H-indazol-5-yl)picolinamide], the IC50 was in the range of 0.05 to 0.1 µM. The result for `Cc1cc(-c2nc(C(=O)Nc3cc4cnn(C)c4cc3C3CC3)co2)ccn1` [Example 45, N-(6-cyclopropyl-1-methyl-1H-indazol-5-yl)-2-(2-methylpyridin-4-yl)oxazole-4-carboxamide] reads < 0.05 µM; that for `Cn1cc2cc(NC(=O)c3cccc(N4CCC(O)C4)n3)c(N3CCCCC3)cc2n1` (centres unmarked) [Example 40, 6-(3-hydroxypyrrolidin-1-yl)-N-(2-methyl-6-(piperidin-1-yl)-2H-indazol-5-yl)picolinamide], < 0.05 µM; that for `Cn1ncc2cc(NC(=O)c3coc(N4CC[C@H](N)C4)n3)c(C3CC3)cc21` [Example 51, (S)-2-(3-aminopyrrolidin-1-yl)-N-(6-cyclopropyl-1-methyl-1H-indazol-5-yl)oxazole-4-carboxamide], > 0.1 µM. In the case of `COCC(=O)OC1CCN(c2cc3c(cc2NC(=O)c2coc(-c4ccnc(C)c4)n2)c(C)nn3C)CC1` [Example 106, 1-(1,3-dimethyl-5-(2-(2-methylpyridin-4-yl)oxazole-4-carboxamido)-1H-indazol-6-yl)piperidin-4-yl 2-methoxyacetate] it was < 0.05 µM; in that of `Cn1cc2cc(NC(=O)c3cccc(N4CC[C@H](O)C4)n3)c(N3CCCCC3)cc2n1` [Example 39, (S)-6-(3-hydroxypyrrolidin-1-yl)-N-(2-methyl-6-(piperidin-1-yl)-2H-indazol-5-yl)picolinamide], < 0.05 µM. In the case of `Cc1ccc(-c2nc(C(=O)Nc3cc4cn(C5CCCC5)nc4cc3C3CC3)co2)cn1` [Example 28, N-(2-cyclopentyl-6-cyclopropyl-2H-indazol-5-yl)-2-(6-methylpyridin-3-yl)oxazole-4-carboxamide] it was < 0.05 µM; in that of `Cn1cc2cc(NC(=O)c3coc(-c4ccnc(N)c4)n3)c(N3CCC(F)CC3)cc2n1` [Example 90, 2-(2-aminopyridin-4-yl)-N-(6-(4-fluoropiperidin-1-yl)-2-methyl-2H-indazol-5-yl)oxazole-4-carboxamide hydrochloride], < 0.05 µM. Turning to `COCCn1ncc2cc(NC(=O)c3coc(-c4ccnc(C)c4)n3)c(N3CCC(CO)CC3)cc21` [Example 94, N-(6-(4-(hydroxymethyl)piperidin-1-yl)-1-(2-methoxyethyl)-1H-indazol-5-yl)-2-(2-methylpyridin-4-yl)oxazole-4-carboxamide], the IC50 is < 0.05 µM. For `Cc1cc(-c2nc(C(=O)Nc3cc4c(C)n(C)nc4cc3N3CCCCC3)co2)ccn1` [Example 73, N-(2,3-dimethyl-6-(piperidin-1-yl)-2H-indazol-5-yl)-2-(2-methylpyridin-4-yl)oxazole-4-carboxamide], the IC50 was < 0.05 µM. In the case of `Cc1cc(-c2nc(C(=O)Nc3cc4cn(C)nc4cc3C3CCCCC3)co2)ccn1` [Example 11, N-(6-cyclohexyl-2-methyl-2H-indazol-5-yl)-2-(2-methylpyridin-4-yl)oxazole-4-carboxamide hydrochloride] it was < 0.05 µM; in that of `Cc1cc(-c2nc(C(=O)Nc3cc4cn(C5CCCC5)nc4cc3N3CCOCC3)co2)ccn1` [Example 8, N-(2-cyclopentyl-6-morpholino-2H-indazol-5-yl)-2-(2-methylpyridin-4-yl) oxazole-4-carboxamide], < 0.05 µM. In the case of `COc1cc(-c2nc(C(=O)Nc3cc4cn(C)nc4cc3N3CCC(CO)CC3)co2)ccn1` [Example 97, N-(6-(4-(hydroxymethyl)piperidin-1-yl)-2-methyl-2H-indazol-5-yl)-2-(2-methoxypyridin-4-yl)oxazole-4-carboxamide] it was < 0.05 µM. The result for `Cc1cc(-c2nc(C(=O)Nc3cc4cnn(C)c4cc3N3CCC(F)CC3)co2)ccn1` [Example 78, N-(6-(4-fluoropiperidin-1-yl)-1-methyl-1H-indazol-5-yl)-2-(2-methylpyridin-4-yl)oxazole-4-carboxamide] reads < 0.05 µM. For `Cn1cc2cc(NC(=O)c3cccc(-c4ccc(F)nc4)n3)c(N3CCCCC3)cc2n1` [Example 12, 6′-fluoro-N-(2-methyl-6-(piperidin-1-yl)-2H-indazol-5-yl)-[2,3′-bipyridine]-6-carboxamide hydrochloride], the IC50 was < 0.05 µM. In the case of `Cn1cc2cc(NC(=O)c3coc(N4CC[C@H](O)C4)n3)c(C3CC3)cc2n1` [Example 55, (S)—N-(6-cyclopropyl-2-methyl-2H-indazol-5-yl)-2-(3-hydroxypyrrolidin-1-yl)oxazole-4-carboxamide] it was 0.05 to 0.1 µM; in that of `Cn1ncc2cc(NC(=O)c3coc(-c4ccnc(N)c4)n3)c(N3CCC(CO)CC3)cc21` [Example 99, 2-(2-aminopyridin-4-yl)-N-(6-(4-(hydroxymethyl)piperidin-1-yl)-1-methyl-1H-indazol-5-yl)oxazole-4-carboxamide hydrochloride], < 0.05 µM. In the case of `Cn1cc2cc(NC(=O)c3cccc(N4CC[C@H](O)C4)n3)c(C3CC3)cc2n1` [Example 49, (S)—N-(6-cyclopropyl-2-methyl-2H-indazol-5-yl)-6-(3-hydroxypyrrolidin-1-yl)picolinamide] it was < 0.05 µM; in that of `Cc1cc(-c2nc(C(=O)Nc3cc4cn(C5CCCC5)nc4cc3N3CCCCC3)co2)ccn1` [Example 4, N-(2-cyclopentyl-6-(piperidin-1-yl)-2H-indazol-5-yl)-2-(2-methylpyridin-4-yl) oxazole-4-carboxamide], < 0.05 µM. Take `Cc1cc(-c2nc(C(=O)Nc3cc4cn(C)nc4cc3N3CCCCC3)co2)cc(C)n1` [Example 119, 2-(2,6-dimethylpyridin-4-yl)-N-(2-methyl-6-(piperidin-1-yl)-2H-indazol-5-yl)oxazole-4-carboxamide hydrochloride]: the IC50 was < 0.05 µM. In the case of `Cc1cc(-c2nc(C(=O)Nc3cc4c(C)nn(C)c4cc3N3CCC(O)CC3)co2)ccn1` [Example 81, N-(6-(4-hydroxypiperidin-1-yl)-1,3-dimethyl-1H-indazol-5-yl)-2-(2-methylpyridin-4-yl)oxazole-4-carboxamide] it was < 0.05 µM; in that of `Cc1cc(-c2nc(C(=O)Nc3cc4cnn(C)c4cc3N3CCCC3)co2)ccn1` [Example 62, N-(1-methyl-6-(pyrrolidin-1-yl)-1H-indazol-5-yl)-2-(2-methylpyridin-4-yl)oxazole-4-carboxamide], < 0.05 µM. As to `COCCn1cc2cc(NC(=O)c3coc(-c4ccnc(C)c4)n3)c(N3CCC(N)CC3)cc2n1` [Example 118, N-(6-(4-aminopiperidin-1-yl)-2-(2-methoxyethyl)-2H-indazol-5-yl)-2-(2-methylpyridin-4-yl)oxazole-4-carboxamide hydrochloride], the IC50 was < 0.05 µM. Turning to `CNc1cc(-c2nc(C(=O)Nc3cc4cn(C)nc4cc3N3CCCCC3)co2)ccn1` [Example 122, N-(2-methyl-6-(piperidin-1-yl)-2H-indazol-5-yl)-2-(2-(methylamino)pyridin-4-yl)oxazole-4-carboxamide hydrochloride], the IC50 is < 0.05 µM. The result for `Cc1cc(-c2nc(C(=O)Nc3cc4cn(C)nc4cc3N3CCC(O)CC3)co2)ccn1` [Example 58, N-(6-(4-hydroxypiperidin-1-yl)-2-methyl-2H-indazol-5-yl)-2-(2-methylpyridin-4-yl)oxazole-4-carboxamide] reads < 0.05 µM; that for `Cn1cc2cc(NC(=O)c3cccc(N4CC[C@H](N)C4)n3)c(C3CC3)cc2n1` [Example 48, (S)-6-(3-aminopyrrolidin-1-yl)-N-(6-cyclopropyl-2-methyl-2H-indazol-5-yl)picolinamide], > 0.1 µM; that for `C[C@H](O)Cn1cc(-c2cccc(C(=O)Nc3cc4cn(C)nc4cc3N3CCC(CO)CC3)n2)cn1` [Example 92, (S)—N-(6-(4-(hydroxymethyl)piperidin-1-yl)-2-methyl-2H-indazol-5-yl)-6-(1-(2-hydroxypropyl)-1H-pyrazol-4-yl)picolinamide], < 0.05 µM. Regarding `O=C(Nc1cc2cn(C3CCCC3)nc2cc1C1CC1)c1cccc(-c2cn[nH]c2)n1` [Example 7, N-(2-cyclopentyl-6-cyclopropyl-2H-indazol-5-yl)-6-(1H-pyrazol-4-yl) picolinamide], the IC50 is < 0.05 µM.

Take `Cc1cc(-c2nc(C(=O)Nc3cc4cn(C)nc4cc3C3CC3)co2)ccn1` [Example 16, N-(6-cyclopropyl-2-methyl-2H-indazol-5-yl)-2-(2-methylpyridin-4-yl)oxazole-4-carboxamide hydrochloride]: the IC50 was < 0.05 µM.

(Values after patent US10160753B2, “Indazole compounds as IRAK4 inhibitors” (Aurigene Discovery Technologies Limited, priority 2014, dated 2018).)
